{"source": "patent US20230123104A1", "about": "“CRYSTAL OF TRICYCLIC COMPOUND ACTING ON CRBN PROTEIN AND PREPARATION METHOD THEREFOR” (CHIA TAI TIANQING PHARMACEUTICAL GROUP CO., LTD., priority 2020, published 2023)", "key": {"[1]": {"system": "multiple myeloma cell line MM.1S", "assay": "Antiproliferative effect, CellTiter-Glo cell viability assay, MM.1S", "type": "cell-based, human", "procedure": "(§1) In this experiment, the inhibition of cell proliferation in multiple myeloma cell lines MM.1S and NCI-H929 by the compound of formula (I) was detected.\n(§2) The tumor cell lines were cultured in an incubator at 37° C. with 5% CO2 under the culture conditions described above. Periodical passaging was performed, and cells growing at log phase were used for plating.\n(§3) (1) Cells were stained with trypan blue and viable cells were counted.\n(§4) (2) The cell concentration was adjusted to an appropriate level.\n(§5) (3) 90 μL of cell suspension was added to each well in the culture plate and cell-free medium was added to the blank control wells according to the table above.\n(§6) (4) The culture plate was incubated overnight in an incubator at 37° C. with 5% CO2 and 100% relative humidity. […]\n(§7) The following procedure was performed according to the instructions of Promega CellTiter-Glo luminescence cell viability assay kit (Promega-G7573). […]\n(§8) (8) The culture plate was placed at room temperature for 10 min to stabilize the luminescence signals.\n(§9) (9) The luminescence signals were detected on 2104 EnVision plate reader.\n(§10) Inhibition rates of the compound of formula (I) at different concentrations were calculated in Excel, followed by plotting the inhibition curves and calculating relevant parameters including minimum inhibition rate, maximum inhibition rate and IC50 using GraphPad Prism software."}, "[2]": {"system": "multiple myeloma cell line NCI-H929", "assay": "Antiproliferative effect, CellTiter-Glo cell viability assay, NCI-H929", "type": "cell-based", "procedure": "as §1, §2, §3, §4, §5, §6, §7, §8, §9, §10"}, "[3]": {"assay": "Pharmacokinetic evaluation in mice", "type": "in vivo, C57BL male mice", "description": "(§11) The test animals in the study were C57BL male mice, and the LC/MS/MS method was used to quantitatively determine the drug concentration in the plasma of the mice at different time points after intravenous injection or oral administration of the test compound, thus evaluating the pharmacokinetic characteristics of the compound of formula (I) in the mice.\nC57Balb/C (C57) mice (male, 20-30 g, 7-10 weeks old, Beijing Vital River or Shanghai SLAC).\nClear or suspended solution of the compound of formula (I) was injected into C57 mice (fasted overnight) via the tail vein or administered intragastrically to C57 mice (fasted overnight). For intravenous injection, […] of blood was each collected by jugular vein puncture at 0 h (before injection) and 0.0833 h, 0.25 h, 0.5 h, 1 h, 2 h, 4 h, 6 h, 8 h and 24 h (after injection), and then placed in an anticoagulation tube added with EDTA-K2 (Jiangsu KANGJIAN Medical Apparatus Co., Ltd.), and the mixture was thoroughly vortex-mixed at 4° C. and centrifuged at 13000 rpm for 10 min; for intragastric administration, blood was collected by jugular vein puncture at 0 h (before administration) and 0.5 h, 1 h, 2 h, 4 h, 6 h, 8 h and 24 h (after administration), and then placed in an anticoagulation tube added with EDTA-K2 (Jiangsu KANGJIAN Medical Apparatus Co., Ltd.), and the mixture was thoroughly vortex-mixed and centrifuged at 13000 rpm for 10 min. The plasma concentration was measured by LC-MS/MS, and the relevant pharmacokinetic parameters were calculated using WinNonlin™ Version 6.3 (Pharsight, Mountain View, Calif.), a pharmacokinetic software, with a non-compartmental model linear-log trapezoidal method."}, "[4]": {"assay": "Pharmacokinetic evaluation in rats", "type": "in vivo, SD male rats", "description": "as §11, with “SD” for “C57BL”, “rats,” for “mice,”, “rats” for “mice”, “compound of formula (I),” for “test compound,”, “rats.” for “mice.”\nSprague Dawley (SD) rats (male, 200-300 g, 7-10 weeks old, Beijing Vital River or Shanghai SLAC).\nClear solution of the compound of formula (I) was injected into SD rats (fasted overnight) via the tail vein or administered intragastrically to SD rats (fasted overnight). For intravenous injection, 200 μL of blood was each collected by jugular vein puncture at 0 h (before injection) and 0.0833 h, 0.25 h, 0.5 h, 1 h, 2 h, 4 h, 6 h, 8 h and 24 h (after injection), and then placed in an anticoagulation tube added with EDTA-K2 (Jiangsu KANGJIAN Medical Apparatus Co., Ltd.), and the mixture was thoroughly vortex-mixed at 4° C. and centrifuged at 13000 rpm for 10 min; for intragastric administration, blood was collected by jugular vein puncture at 0 h (before administration) and 0.5 h, 1 h, 2 h, 4 h, 6 h, 8 h and 24 h (after administration), and then placed in an anticoagulation tube added with EDTA-K2 (Jiangsu KANGJIAN Medical Apparatus Co., Ltd), and the mixture was thoroughly vortex-mixed and centrifuged at 13000 rpm for 10 min. The plasma concentration was measured by LC-MS/MS, and the relevant pharmacokinetic parameters were calculated using WinNonlin™ Version 6.3 (Pharsight, Mountain View, Calif.), a pharmacokinetic software, with a non-compartmental model linear-log trapezoidal method."}, "[5]": {"system": "human myeloma MM.1S cells", "assay": "In vivo pharmacodynamic study in subcutaneous xenograft tumor CB-17 SCID model", "set-up": "species or system CB-17 SCID mice", "settings": "5 mg/kg oral, twice daily", "procedure": "Cell culturing: human multiple myeloma cells MM.1S (ATCC® CRL-2974™) were cultured in vitro, in a semi-suspension manner, with an ATCC-formulated RPMI-1640 medium containing 10% fetal calf serum, 100 U/mL penicillin and 100 μg/mL streptomycin in an incubator at 37° C. with 5% CO2. Passages were performed twice a week. At a required number, the cells were taken, counted and inoculated.\nAnimals: CB-17 SCID mice, female, 6-8 weeks old, weighing 18-20 g.\n0.2 mL (5×10^6 cells) of MM.1S cells (along with matrigel in a volume ratio of 1:1) was subcutaneously inoculated on the right back of each mouse, and the mice were divided into groups for administration after the mean tumor volume was approximately 130 mm^3. Seven days constitute an administration cycle, twice daily with a 12 h interval, and the compound of formula (I) was orally administered for a total of four cycles. The compound of formula (I) was administered at a dose of 5 mg/kg, tumor volume was measured twice weekly with a two-dimensional caliper, and the volume was measured in cubic millimeters and calculated according to the following formula: V=0.5a×b^2, where a and b are the long and short diameters, respectively, of the tumor. Anti-tumor efficacy was determined by dividing the mean tumor increase volume of animals treated with the compound of formula (I) by the mean tumor increase volume of untreated animals."}, "[6]": {"settings": "intravenous injection (2 mg/kg)"}, "[7]": {"settings": "intragastric administration (10 mg/kg)"}}, "data": [{"smiles": "O=C1CCC(c2noc3ccc4[nH]ccc4c23)C(=O)N1", "note": "(centres unmarked) [Compound of formula (I)]", "values": [{"measurement": "inhibitory effect on cell proliferation (conclusion)", "setting": "[1]", "value": "excellent inhibitory effect"}, {"measurement": "IC50", "setting": "[1]; Homo sapiens, MM1.S, 120 h, co-incubated 5 days, CellTiter-Glo", "value": 0.4, "unit": "nM"}, {"measurement": "IC50", "setting": "[2]; Homo sapiens, 120 h, NCI-H929, co-incubated 5 days, CellTiter-Glo", "value": 0.5, "unit": "nM"}, {"measurement": "inhibitory effect on cell proliferation (conclusion)", "setting": "[2]; NCI-H929", "value": "excellent inhibitory effect"}, {"measurement": "Area under plasma concentration-time curve (0-inf)", "setting": "[3]; [6]", "value": 5.34, "unit": "µM·h"}, {"measurement": "Area under plasma concentration-time curve (0-inf)", "setting": "[3]; oral administration (10 mg/kg)", "value": 12.29, "unit": "µM·h"}, {"measurement": "Bioavailability F", "setting": "[3]; oral administration (10 mg/kg)", "value": 46.1, "unit": "%"}, {"measurement": "Peak concentration", "setting": "[3]; oral administration (10 mg/kg)", "value": 10.52, "unit": "µM"}, {"measurement": "Time to peak", "setting": "[3]; oral administration (10 mg/kg)", "value": 0.25, "unit": "h"}, {"measurement": "Area under plasma concentration-time curve (0-inf)", "setting": "[4]; [7]", "value": 26.34, "unit": "µM·h"}, {"measurement": "Bioavailability F", "setting": "[4]; [7]", "value": 66.5, "unit": "%"}, {"measurement": "Peak concentration", "setting": "[4]; [7]", "value": 12.75, "unit": "µM"}, {"measurement": "Time to peak", "setting": "[4]; [7]", "value": 0.50, "unit": "h"}, {"measurement": "Area under plasma concentration-time curve (0-inf)", "setting": "[4]; [6]", "value": 7.92, "unit": "µM·h"}, {"measurement": "Tumor volume (Day 0)", "setting": "[5]; Day 0", "value": "131 ± 12", "unit": "mm^3"}, {"measurement": "TGI (Day 24)", "setting": "[5]; Day 24", "value": 105, "unit": "%"}, {"measurement": "Tumor volume (Day 24)", "setting": "[5]; Day 24", "value": "14 ± 5", "unit": "mm^3"}]}]}
